Test results reported in the NIST ThermoML archive (doi:10.1021/acs.jced.6b00542).

Experiment: xn = mol fraction of the nth substance listed
Conditions: for surface tension liquid-gas: 294.5 K, Pendant drop shape; for speed of sound: 100 kPa, Frequency=3 MHz, Sing-around technique in a fixed-path interferometer; for speed of sound / viscosity / mass density: Liquid; for viscosity / mass density: 102 kPa; for viscosity: Concentric cylinders viscometry; for mass density: Vibrating tube method

CCCCCCCCCCCCCCCCC [heptadecane] + CCCCc1ccccc1
Conditions | surface tension liquid-gas [mN/m]
x2 = 0.1662 | 27.6
x2 = 0.3047 | 27.7
x2 = 0.4587 | 28
x2 = 0.6419 | 28.2
x2 = 0.7515 | 28.3
x2 = 0.8742 | 29.2

Conditions | mass density [kg/m3] | speed of sound [m/s] | viscosity [mPa·s]
303.15 K, x2 = 0 | 771.02 | 1330.9 | 3.25
303.15 K, x2 = 0.1662 | 777.94 | 1325.3 | 2.73
303.15 K, x2 = 0.3047 | 784.91 | 1321.4 | 2.35
303.15 K, x2 = 0.4587 | 794.08 | 1316.9 | 1.96
303.15 K, x2 = 0.6419 | 808.08 | 1312.4 | 1.56
303.15 K, x2 = 0.7515 | 818.66 | 1311.3 | 1.35
303.15 K, x2 = 0.8742 | 833.23 | 1311 | 1.13
313.15 K, x2 = 0 | 764.16 | 1294.5 | 2.61
313.15 K, x2 = 0.1662 | 771 | 1289 | 2.23
313.15 K, x2 = 0.3047 | 777.87 | 1285 | 1.94
313.15 K, x2 = 0.4587 | 786.92 | 1280.3 | 1.64
313.15 K, x2 = 0.6419 | 800.73 | 1275.9 | 1.32
313.15 K, x2 = 0.7515 | 811.14 | 1274.1 | 1.15
313.15 K, x2 = 0.8742 | 825.49 | 1273.6 | 0.967
323.15 K, x2 = 0 | 757.3 | 1258.8 | 2.14
323.15 K, x2 = 0.1662 | 764.03 | 1253.3 | 1.85
323.15 K, x2 = 0.3047 | 770.84 | 1249.2 | 1.62
323.15 K, x2 = 0.4587 | 779.75 | 1244.5 | 1.39
323.15 K, x2 = 0.6419 | 793.34 | 1239.7 | 1.14
323.15 K, x2 = 0.7515 | 803.6 | 1237.6 | 1
323.15 K, x2 = 0.8742 | 817.71 | 1236.6 | 0.844
333.15 K, x2 = 0 | 750.45 | 1223.8 | 1.79
333.15 K, x2 = 0.1662 | 757.11 | 1218.1 | 1.56
333.15 K, x2 = 0.3047 | 763.79 | 1214 | 1.38
333.15 K, x2 = 0.4587 | 772.56 | 1209.1 | 1.2
333.15 K, x2 = 0.6419 | 785.94 | 1204 | 0.981
333.15 K, x2 = 0.7515 | 796.02 | 1201.6 | 0.865
333.15 K, x2 = 0.8742 | 809.9 | 1200.1 | 0.747
343.15 K, x2 = 0 | 743.7 | – | 1.52
343.15 K, x2 = 0.1662 | 750.12 | – | 1.33
343.15 K, x2 = 0.3047 | 756.65 | – | 1.19
343.15 K, x2 = 0.4587 | 765.4 | – | 1.04
343.15 K, x2 = 0.6419 | 778.47 | – | 0.861
343.15 K, x2 = 0.7515 | 788.4 | – | 0.768
343.15 K, x2 = 0.8742 | 802 | – | 0.671
353.15 K, x2 = 0 | 736.8 | – | 1.3
353.15 K, x2 = 0.1662 | 743.1 | – | 1.16
353.15 K, x2 = 0.3047 | 749.6 | – | 1.04
353.15 K, x2 = 0.4587 | 758.1 | – | 0.906
353.15 K, x2 = 0.6419 | 771 | – | 0.763
353.15 K, x2 = 0.7515 | 780.7 | – | 0.684
353.15 K, x2 = 0.8742 | 794.1 | – | 0.602
363.15 K, x2 = 0 | 729.8 | – | 1.14
363.15 K, x2 = 0.1662 | 736.1 | – | 1.01
363.15 K, x2 = 0.3047 | 742.4 | – | 0.909
363.15 K, x2 = 0.4587 | 750.8 | – | 0.805
363.15 K, x2 = 0.6419 | 763.4 | – | 0.687
363.15 K, x2 = 0.7515 | 773 | – | 0.623
363.15 K, x2 = 0.8742 | 786.1 | – | 0.546
373.15 K, x2 = 0 | 723 | – | 1
373.15 K, x2 = 0.1662 | 729 | – | 0.891
373.15 K, x2 = 0.3047 | 735.2 | – | 0.811
373.15 K, x2 = 0.4587 | 743.5 | – | 0.725
373.15 K, x2 = 0.6419 | 755.8 | – | 0.628
373.15 K, x2 = 0.7515 | 765.2 | – | 0.567
373.15 K, x2 = 0.8742 | 778.1 | – | 0.499
